Reference: article PMC12216609, “Inhibitors of eIF1A-ribosome interaction unveil uORF-dependent regulation of translation initiation and antitumor and antiviral effects” (The EMBO Journal, 2025)
Where “and” joins values, the source holds several entries; their conditions need not be identical. Identical values can stand only once. Like-named read-outs stand apart in the source and are kept apart here.

Key:
[1] = tested on: OVCAR8 cell-derived xenograft; test: Xenografts growth after 1Ais treatment in mice; format: in vivo
[2] = tested on: cap-proximal AUG GFP reporter in HEK293T cells; format: cell-based; conditions: GFP WB densitometry; 20 µM overnight; dmso 0.965946
From the text: Translation from an AUG preceded by a very short 5'UTR (less than 30 nt) is usually inefficient and frequently bypassed, resulting in initiation from a downstream AUG, a phenomenon known as leaky scanning. […] To examine the impact of 1Ais on short 5'UTR initiation, we used a GFP reporter gene containing an AUG located 16 nt downstream from the 5' end followed by a second in-frame downstream AUG (Fig. 1F; Appendix Fig. S1B). Cells were transfected with this GFP reporter gene followed by exposure to DMSO (vehicle) and 1Ais. Initiations from upstream (US) or downstream (DS) AUGs were determined by western blot (WB) with anti-GFP antibodies and the ratio between the US and DS AUG was determined.
For the analysis of translation from very short 5'UTR and Leaky scanning, HEK293T cells were transfected with a GFP (20 ng/well) reporter gene driven by a cap-proximal and downstream AUGs (Elfakess et al, [2011]) together with a luciferase reporter gene (100 ng/well) as normalizing control and treated with 20 µM of 1Ais as described above. GFP levels were determined by Western blot (WB) (GFP antibody, Abcam #ab290) and quantified by densitometry (ImageJ) and normalized to the measured luciferase activity.
HEK293T cells were transfected with the GFP reporter gene schematically shown on the top. The first
AUG is […] from the 5’ end and the downstream AUG is in the same frame. Six hours after transfection, cells were treated with 1Ais. After overnight exposure to 1Ais, GFP expression was analyzed by WB using anti -GFP antibodies.
US/DS ratio was determined by densitometry and represents the long protein expression (upstream AUG, US) vs the […]
biological replicates. (C-D) Analysis of reporter genes mRNA levels after 1Ais treatment.

[3] = tested on: IRF7 5'UTR firefly luciferase reporter in HEK293T cells; conditions: for LONG (summary - All), normalized to DMSO / SHORT (summary - All), normalized to DMSO: individual replicates, outliers excluded, DMSO = 1; for Long 5'UTR reporter luciferase activity, normalized to DMSO (=1), single replicates: compound at 20 µM, left data block (Long), source data of Fig 1C; for average ( long vs short ratio): summary - All;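 on all read-outs here: luciferase signal corrected by a co-transfected GFP reporter for transfection efficiency, read after overnight compound exposure, with Long and Short reporters differing in 5'UTR length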
Description: For the effect on ribosomal scanning, we used two firefly luciferase reporter genes that differ in their 5'UTR length (Fig. 1C). […] Cells were transfected with these reporters along with a GFP reporter gene used to normalize transfection efficiency. After an overnight 1Ai or DMSO (vehicle control) exposure, luciferase and GFP expression were measured, and normalized activity was determined.
For the reference vs IRF7 5'UTR luciferase reporter assay, HEK239T cells in a 12-well plate were transfected with the previously described IRF7 5'UTR or reference firefly luciferase reported genes (Sehrawat et al, [2019]) (100 ng/well) together with GFP (20 ng/well) that served as an internal control by CaCl2 transfection. After 6 h, half of the growth medium was replaced with a medium containing the different compounds, reaching a final concentration of 20 µM. Twenty-four hours after transfection, transfection efficiency was evaluated using GFP fluorescence intensity (Cytation 5, ex/em: 470/525). Cells were harvested in 50 µL Reported lysis buffer (RLB) and put on a shaker for 10 min. From each well 5 µL were taken in duplicates and tested by luminometer.

eIF1A-RPS10 interaction = target: T1, eIF1A-RPS10 interaction (Homo sapiens, UniProt P46783+P47813); test: Split-Renilla luciferase eIF1A-RPS10 interaction screen, dose-response; format: biochemical; conditions: Appendix Table S1; read-out: IC50 from the split RL screen
T1 construct: made in house; host or cells: E. coli BL21 (PRSFduet); unpurified lysate supernatant
T1 sequence (P47813 whole entry, one chain of several): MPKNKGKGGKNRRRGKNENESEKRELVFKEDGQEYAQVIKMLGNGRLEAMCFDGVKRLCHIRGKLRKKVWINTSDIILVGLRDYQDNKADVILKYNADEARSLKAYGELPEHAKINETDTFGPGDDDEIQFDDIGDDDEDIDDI
Description: While knockdown (KD) studies of eIF1A provided valuable insights into its role in mammalian cell translation (Sehrawat et al, [2019]), this approach presents several limitations. First, it fails to elucidate the functional significance of the opposing functions of eIF1A N- and C-terminal tails with respect to scanning and start codon fidelity. Second, the extended duration required for achieving efficient knockdown, 48–72 h, impairs our ability to differentiate between direct and indirect effects. To overcome these constraints, we set out to develop small-molecule inhibitors targeting eIF1A. Guided by structural and biochemical studies showing eIF1A binding to the small ribosomal subunit at the A-site and interacting directly with RPS10 through its N-terminal tail (Haimov et al, [2017]; Passmore et al, [2007]; Sehrawat et al, [2019]), our approach focused on disrupting the interaction between eIF1A and RPS10. […] The interaction between eIF1A and RPS10 brings the two parts together, leading to the reconstitution of the enzymatic activity (Haimov et al, [2017]). In this system, the spatial arrangement of the two RL parts is critical for the enzymatic activity, making it sensitive not only to direct interference with the interacting proteins but also to changes in the conformation of the fused proteins. In the eIF1A-RPS10 split-RL pair, the C-terminus of eIF1A is fused to N-RL (Fig. 1A), in order to maintain the NTT accessible to RPS10 binding. This pair was cloned and expressed in bacteria as recombinant proteins and used to screen a library of ~50,000 small molecules from diverse sources (Ashkenazi et al, [2017]).
eIF1A-ΔC-Renilla and RPS10-ΔN-Renilla were transformed into BL21 E. coli by heat shock transformation. A bacterial starter of 5 ml LB was incubated overnight at 37 °C and transferred into 1 L LB for incubation at 37 °C until OD ~ 0.5–0.7. Next, protein expression was induced with 0.5 mM IPTG, and bacterial cells were incubated overnight at 16 °C. Bacterial cell pellet was collected after centrifugation (3000 RPM, 15 min), resuspended in 20 ml TKE buffer (Tris 10 mM, KCl 100 mM, EDTA 0.1 mM), sonicated (bath sonicator, 24 cycles of 30 s) and centrifuged again (15000 RPM, 30 min). Supernatants were collected, analyzed for RL activity, and then used for high throughput drug screen (HTS) at the Weizmann G-INCPM HTS unit as described (Ashkenazi et al, [2017]). In addition to the standard controls of this protocol, the two parts of the split RL, without eIF1A or RPS10, were tested as controls. Selected compounds were purchased from Sigma-Aldrich and Enamine. Compound powders were resuspended in DMSO for a final concentration of 10 mM and stored at −20 °C.

[4] = tested on: CUG/GUG vs AUG start codon luciferase reporters in HEK293T cells; test: Near-cognate AUG starting codon fidelity reporter assay (GUG, CUG vs AUG); format: cell-based; conditions: for GUG vs AUG data (%): individual repeat; for GUG vs AUG (%) Average: summary average of repeats, DMSO control average […]; for CUG vs AUG (%): CUG start codon reporter relative to AUG reporter (AUG = 100); for CUG vs AUG (%) / GUG vs AUG (%): compound at 20uM (summary head), single-experiment calculation; for GUG vs AUG (%): GUG start codon reporter relative to AUG reporter (AUG = 100)
Description: We next considered the importance of eIF1A in controlling start codon fidelity in yeast and mammalian cells (Martin-Marcos et al, [2011]; Martin-Marcos et al, [2017]; Sehrawat et al, [2019]; She et al, [2023]) and tested how inhibition of eIF1A by 1Ais affects the initiation from near-cognate AUG. The effect of 1Ais was analyzed using firefly luciferase reporters bearing either AUG (control), CUG, or GUG as the exclusive translation initiation sites. Co-transfected GFP reporter served as an internal control for transfection efficiency.
For the near-cognate AUG Starting codon fidelity reporter assay, HEK293T cells were transfected with 100 ng of the previously described luciferase reporter constructs driven either by AUG, CUG, and GUG (Tang et al, [2017]) together with GFP expressing plasmid (20 ng) as normalizing control. Luciferase and GFP levels were determined as described above.
Appendix Figure S1: (A) HEK293T cells were transfected with Luciferase reporter genes with either CUG or AUG as their exclusive starting codon. 6 hours after transfection, cells were exposed to 1Ais, and the luminescence from all constructs was measured after overnight incubation. Bars represent the ratio between luminescence from the AUG starting codon and CUG after normalization with co-transfected GFP; Error bars represent SEM, * denotes p<0.05 (T-test comparing to DMSO control), n=≥4 independent biological replicates.

NSP1 = NSP1 (Severe acute respiratory syndrome coronavirus 2, UniProt P0DTD1)
[5] = raw data calculation of one experiment, GFP normalized, AUG set to 100, compound marked (20)

SMILES	US/DS ratio, average [2]	LONG (summary - All), normalized to DMSO ([3]; Long reporter, 20 µM)	SHORT (summary - All), normalized to DMSO ([3]; Short reporter, 20 µM)	average ( long vs short ratio) ([3]; 20 µM)	IC50 (eIF1A-RPS10 interaction)	GUG vs AUG data (%) ([4]; compound at 20uM)	GUG vs AUG (%) Average ([4]; compound at 20uM)	other results
O=C(Nc1ccc(S(=O)(=O)NC23CC4CC(CC(C4)C2)C3)cc1)c1ccc(Cl)cc1 [1A-3638]								Weight of tumor, average ([1]; group average): 0.2614; Weight of tumor ([1]; individual animals): 0.6521 and 0.1855 and 0.085 and 0.0594 and 0.2257 and 0.0264 and 0.562 and 0.006 and 0.5508; Tumor weight p-value (t-test vs DMSO) ([1]; t.test vs DMSO): 0.005991
c1csc(-c2nc(NCc3nnc4ccccn34)c3ccccc3n2)c1 [1Ai-2136]	0.8866	0.43 and 0.72 and 0.55 and 0.54	0.63 and 0.25 and 0.98 and 0.99 and 0.71 and 0.58	0.813	29 µM	1.58% and 2.63% and 2.62% and 2.27%	2.27%	Long 5'UTR reporter luciferase activity, normalized to DMSO (=1), single replicates [3]: 0.43 and 1.0233 and 1.053 and 0.724 and 0.552 and 0.5382
O=S(=O)(Cc1cc(Cl)c2c(c1)OCCO2)Cc1nc(-c2ccccc2)no1 [1Ai-6476]	0.719	0.42 and 1.63 and 1.39 and 0.53	0.36 and 1.11 and 1.08 and 0.95	1.134	15 µM	1.75% and 1.69% and 1.77% and 1.59%	1.70%	calculation: CUG (AUG = 100) [4, 5]: 6.068; calculation: GUG (AUG = 100) [4, 5]: 1.669
O=C1c2ccccc2NC(c2cc(Cl)c3c(c2)OCO3)N1C1CC1 (centres unmarked) [1Ai-6586]	0.8389	0.0557 and 0.45 and 1.19 and 0.73	0.06 and 0.81 and 0.69 and 1.23	0.871	24 µM	1.26% and 0.96% and 1.21% and 1.81%	1.31%	CUG vs AUG (%) [4]: 6.859%; GUG vs AUG (%) [4]: 1.078%
COC(=O)C1=C(C)NC2=C(C(=O)CC(c3ccc(F)cc3)C2)C1c1ccc(N(C)C)cc1Cl (centres unmarked) [1Ai-9162]	0.9825	0.54 and 0.53 and 0.27 and 0.64	0.54 and 0.47 and 0.46	1.009	16 µM	2.05% and 2.20% and 2.48% and 2.61%	2.33%	CUG vs AUG (%) [4]: 9.614%; GUG vs AUG (%) [4]: 2.083%
NS(=O)(=O)c1cccc(-c2ccc(C3Nc4ccccc4-c4nc5ccccc5n43)o2)c1 (centres unmarked) [1Ai-0050]	1.064	1.25 and 0.94 and 0.54 and 1.63	0.72 and 0.91	1.337	26 µM	2.02% and 1.27% and 1.28% and 1.15%	1.43%	
O=C(Nc1nc(-c2c[nH]c3ccccc23)cs1)c1cc(=O)[nH]c2ccccc12 [1Ai-0403]	1.283				17 µM			LONG (summary - All), normalized to DMSO ([3]; Long reporter, 5 µM): 0.54 and 1.00 and 0.95; SHORT (summary - All), normalized to DMSO ([3]; Short reporter, 5 µM): 1.05 and 0.93 and 1.12; Long: Normalized to average DMSO ([3]; data section, Long reporter, GFP-corrected, 5 µM, per experiment): 0.5423 and 1 and 0.9496; Short: Normalized to average DMSO ([3]; data section, Short reporter, GFP-corrected, 5 µM, per experiment, includes values excluded as outliers): 1.05 and 0.9341 and 1.121; average ( long vs short ratio) ([3]; 5 µM): 0.803; GUG vs AUG data (%) ([4]; compound at 5uM): 1.56% and 2.09% and 1.50% and 2.83%; GUG vs AUG (%) Average ([4]; compound at 5uM): 1.99%
COc1ccc(CN(Cc2nn3c(=O)cc(C)nc3s2)C(C)Cc2cccs2)cc1 (centres unmarked) [1Ai-5751]	1.056	0.26 and 0.28 and 0.72 and 0.89 and 0.77 and 0.31	0.74 and 0.11 and 0.73 and 0.61 and 0.46 and 0.21	1.128	18 µM	1.65% and 1.59% and 3.31% and 1.26%	1.95%	Long 5'UTR reporter luciferase activity, normalized to DMSO (=1), single replicates [3]: 0.2584 and 0.2757 and 0.7216 and 0.8893 and 0.7688 and 0.3143; GFP reporter ratio nsp1/gfp, avg (NSP1): 0.4183; GFP reporter ratio nsp1/gfp, rep 1 (NSP1): 0.4426; GFP reporter ratio nsp1/gfp, rep 2 (NSP1): 0.3941; gfp signal, mean of duplicate wells (NSP1): 2691 and 4145; nsp1 signal, mean of duplicate wells (NSP1): 1060.5 and 1834.5; ratio (nsp1/gfp) (NSP1): 0.394 and 0.443
